Data on one substance can be found in patent US20130064831A1, “IMMUNOTHERAPEUTIC DOSING REGIMENS AND COMBINATIONS THEREOF” (Bristol-Myers Squibb Company, priority 2010, published 2013).

The subject of one data set is melanoma. As to conditions: cited from earlier work.
The subject of a further data set is NSCLC Subjects. The data set is described as follows: CA184041 phase II trial: safety, exposure and discontinuation. The note with it: in vivo. On the procedure: Blinded Study Drug: Ipilimumab 10 mg/kg or matched placebo administered as a single dose intravenously over 90 minutes every 3 weeks (up to 6 doses) as part of induction. Subjects may receive additional maintenance Ipilimumab/placebo at a dose of 10 mg/kg and administered intravenously over 90 minutes every 12 weeks starting 24 weeks after the first Ipilimumab/placebo dose. Dose reductions were not permitted. […] Dose modifications (reductions as well as delays) are as per product label. PARAPLATIN®: AUC=6 administered as a single dose intravenously over 30 minutes every 3 weeks (up to 6 doses). Dose modifications (reductions as well as delays) are as per product label. Treatment with blinded Ipilimumab (active or placebo) proceeded until immune-related tumor progression as defined by the irRC is observed or intolerable toxicity occurs.
Safety was summarized and listed for all treated subjects using the National Cancer Institute (NCI) Common Terminology Criteria for Adverse Events (CTCAE) version 3.0 by treatment arm for each tumor type. All treatment emergent AEs, drug-related treatment emergent AEs, serious AEs and drug-related SAEs were tabulated using worst grade per NCI CTCAE v3.0 criteria by system, organ, class, and preferred term. The listings by subject were produced for all deaths, all SAEs and all AEs leading to discontinuation of study drug. […]

Data set [1] deals with ovarian or prostate cancer. The note with it: some patients with ovarian or prostate cancer; cited from earlier work.

For the substance “Ipilimumab: fully human IgG1 anti-CTLA-4 monoclonal antibody, CAS 477202-00-9, light/heavy chain variable regions SEQ ID NO:1 and 2”, the tumor regressions result in the data set with melanoma (initial studies in patients with melanoma) is “objective durable tumor regressions”. Moreover, the antitumor activity entry with melanoma (patients with advanced melanoma) is “demonstrated antitumor activity”. Besides, in the data set on NSCLC Subjects, the “potentiation of chemotherapy-related toxicity” value is “did not potentiate chemotherapy-related toxicity”. Also, the serum tumor markers entry in data set [1] was “reductions of serum tumor markers”.
